US20060135587A1, “Method and compounds for promoting healing and reducing inflammation” (priority 2002, published 2006)
Marks after values point to notes of the source that are not given here.

Tests used:
experimental granuloma = assay: Cotton-wool granuloma (chronic proliferative inflammation) in rats; format: in vivo; settings: 100 mg/kg orally, 12 days
Protocol: We investigated the ability of compound (2) to reduce the formation of granulation tissue in the inflammatory focus which develops at the site at which a non-sterile cotton-wool roll weighing 40 mg is implanted subcutaneously (Swingle and Shideman, 1972). Compound (2) was administered orally to male rats weighing 130-150 g at a dose of 100 mg/kg for 6 days before the cotton-wool roll was implanted, and then for 6 days at the same dose while the granuloma developed. Anti-inflammatory agents, such as ibuprofen and butadione, were used for comparison, using the same procedure. There were 10 rats in each group.
After 12 days the experiment was terminated, and the granulomas were excised, weighed, and the wet weight of the granulation tissue was measured. The dry mass of the granuloma was measured after drying for 24 hours at 70° C., and the exudative and proliferative stages of the granulomas were calculated. Statistical analysis was performed using the Student's parametric test.

[1] = system: aseptic full-thickness skin wounds; assay: Healing of aseptic full-thickness skin wounds in rats, topical treatment; format: in vivo
Text: To heal successfully, wounds should be treated with regard to specific features of the various stages of healing process of the wound (Kuzin et al, 1981). The wound-healing effect of salts of N-substituted 1,3-dialkyl-4,5-bis(carbamoyl)imidazolium derivatives was studied in a model of aseptic full-thickness skin wounds in rats (Zapadnyuk et al, 1983). The effect of 10% 1-ethyl-3-methyl-4,5-bis(N-methylcarbamoyl)imidazolium benzensulfonate in a lanolin ointment base was compared to that of Solcoseryl gel and Spasatel balm.
Aseptic full-thickness skin wounds were created in rats under light ether anaesthesia. At a site on the animal's back where the animal could not lick the wound, the skin was shaved, and a circular piece of skin approximately 2.5 cm^2 area was excised with scissors. Following recovery from anaesthesia the animals were kept in separate cages, with normal food and water ad libitum. A total of 100 rats weighing from 200 to 250 g were used, with 20 rats in each group. The groups were as follows:
Treatment was performed 24 hours after the wounding by applying […] once a day in a proportion of 80 mg of ointment per 1 cm^2 of the wound area (8 mg of substance per 1 cm^2) and then daily until healing was complete.
Animals were examined at 5, 10, 15 and 20 days for the following parameters; wound size and wound healing time; weight gain, peripheral blood indicators (total leucocyte count, differential leucocyte count, and erythrocyte sedimentation rate); and biochemical serum indicators (total protein, albumin, globulin, and globulin fractions); and macroscopic and microscopic assessment of wounds. The average complete wound healing period was 16.8±1.9 days for Compound 2, compared to 23.5±2.2 days for Spasatel and 24.0±2.4 days for Solcoseryl.
For measurement of wound size, a sterile object plate was laid over the wound, and its contour was outlined with a marker. The wounds were photographed, the wound outlines were scanned, and their area was calculated using an in-house computer program.

[2] = system: carrageenin-induced inflammation; assay: Carrageenin-induced inflammation in intact and adrenalectomized rats; format: in vivo
Protocol: An acute inflammatory oedema was induced in intact and adrenalectomized male rats weighing 180-200 g by sub-plantar injection of 0.1 ml of 1% carrageenin solution into the left paw (Winter et al., 1962). The same volume of saline solution was injected into the contralateral paw. […] There were 10 rats in each group.
The degree of carrageenin-induced inflammation of the ankle joints was assessed at 3 hours after the induction of the inflammation, on the basis of the change in weight of the experimental and control paws (reaction index).

[3] = system: neurogenic dystrophy of the myocardium; assay: Myocardial infarction model (electrostimulation), enzymes in rabbit myocardium; format: in vivo, rabbits; settings: 10 mg/kg; 48 hours after electrostimulation
Text: The effect of Compound 2 on myocardial tissue in an experimental model of myocardial infarction was examined. In this model system neurogenic dystrophy of the myocardium was induced in rats or rabbits by electrical stimulation of the reflexogenic zone of the aortic arch by implanted electrodes for a period of three hours. […] These changes are accompanied by changes in biochemical indicators such as creatine phosphate, cAMP, and calcium ion concentrations, and changes in the activity of redox enzymes such as succinate dehydrogenase, lactate dehydrogenase, and glucose-6-phosphate dehydrogenase. At a later stage organic lesions of the myocardium such as necrotic and fibrosclerotic foci can be observed.
The effect of Compound 2 given intraperitoneally or orally on these indicators was examined in rats and rabbits following electrostimulation as described above. The effects on levels of creatine phosphate in rat myocardial are shown in Table 19, and the effects on adenosine triphosphatase (ATPase), succinate dehydrogenase and glucose-6-phosphate dehydrogenase rabbit myocardium are shown in Table 20. The effects on cAMP and Ca^++ levels in rabbit myocardial tissue are shown in FIG. 5, and effects on creatine kinase in rabbit myocardium and blood and the levels of creatine phosphate in myocardium are shown in FIG. 6.

[4] = system: gastric and duodenal ulcer; assay: Clinical trial in gastric and duodenal ulcer; format: in vivo, human; settings: three 0.2 g tablets per day orally for three weeks
Protocol: A clinical trial of the effect of Compound 2 on gastric and duodenal ulcer was carried out in several gastroenterological clinics in Russia. A total of 167 patients, 30 to 75 years old, was studied; of these 93 had duodenal ulcers and 74 had gastric ulcers. The results were monitored by gastroscopy at weekly intervals. Each patient continued to receive the treatment which s/he had been given prior to commencement of the trial. Compound 2 was administered in addition to the previous treatment. Compound 2 was given orally as three 0.2 g tablets per day over a period of three weeks, ie a total dose of […] for the treatment course, Compound 2 healed 80% of all the duodenal ulcers treated, and 54% of all the gastric ulcers treated. […] The effect of Compound 2 was compared with those of a placebo, or cimetidine. Even better results were obtained when Compound 2 was administered together with conventional therapy. […] Following termination of treatment with Compound 2 no ulceration was observed, ie there was no sign of the abstinence syndrome which is typically seen with H2-blockers and hormones. Compound 2 was an effective therapeutic agent with a pronounced reparative effect on erosive and ulcerating injuries of the gastroduodenal area.

[5] = Adrenalectomized animals, 50 mg/kg 4 days + carrageenin
[6] = Adrenalectomized animals, 100 mg/kg 4 days + carrageenin
[7] = Intact animals, 100 mg/kg 4 days + carrageenin

CC[n+]1cn(C)c(C(=O)NC)c1C(=O)NC.O=S(=O)([O-])c1ccccc1 [Compound 2, 1-methyl-3-ethyl-4,5-bis(N-methylcarbamoyl)-imidazolium benzenesulfonate]
Granuloma weight (mg) Dry weight (experimental granuloma): 180.71 ± 14.16 mg
Granuloma weight (mg) Exudative stage (experimental granuloma): 775.58 mg
Granuloma weight (mg) Fresh weight (experimental granuloma): 956.29 ± 115.5 mg
Granuloma weight (mg) Proliferative stages (experimental granuloma): 140.71 mg
Wound area (% of area before treatment) ([1]; 5th day, topical, test compound as 10% ointment): 84.0%
wound area on the fifteenth day ([1]; 10% Compound 2 ointment): 0.4%
Wound area (% of area before treatment) ([1]; 10th day, topical, test compound as 10% ointment): 8.1%
Wound area (% of area before treatment) ([1]; 15th day, topical, test compound as 10% ointment): 0.4%
Wound area (% of area before treatment) ([1]; 20th day, topical, test compound as 10% ointment): 0.1%
Epithelialization (duration in days) ([1]; Table 8, topical once a day, Compound 2 as 10% ointment in lanolin): 16.8 ± 1.9*^.** days
Epithelialization period ([1]; Table 10, topical, test compound as 10% ointment): 16.8 ± 1.9
average complete wound healing period ([1]; text b167): 16.8 ± 1.9 days
Inhibition of oedema(%) [2, 5]: 27.88%
Reaction index (%) [2, 5]: 31.04 ± 2.49 %
Inhibition of oedema(%) [2, 6]: 44.43%
Reaction index (%) [2, 6]: 25.63 ± 2.86 %
Inhibition of oedema(%) ([2]; Intact animals, 50 mg/kg orally 4 days + carrageenin): 30.41%
Reaction index (%) ([2]; Intact animals, 50 mg/kg orally 4 days + carrageenin, 3 hours): 29.96 ± 2.30 %
Inhibition of oedema(%) [2, 7]: 47.43%
Reaction index (%) [2, 7]: 22.63 ± 2.86 %
ATPase [3]: 0.47 ± 0.13 µM/mg/min
Glucose-6-phosphate dehydrogenase (optical density units) [3]: 6.2 ± 0.7 optical density units
Succinate dehydrogenase (optical density units) [3]: 44.2 ± 6.7 optical density units
side effects [4]: No side effects were observed
duodenal ulcers healed ([4]; added to previous treatment): 80%
gastric ulcers healed ([4]; added to previous treatment): 54%
